{"source": "patent US7560453B2", "about": "“6-(2, 3, 4, 5-tetrahydro-1H-benzo [D] azepin-7-yloxy) -nicotamide derivatives as radio labelled ligands” (Glaxo Group Limited, priority 2005, dated 2009)", "key": {"histamine H3 receptor [1]": {"test_system": "histamine H3 receptor", "experiment": "PET imaging with Compound A in pig brain", "format": "in vivo", "method": "The animals (pig, Yorkshire/Danish Landrace (˜40 Kg; n=2) were housed singly in thermostatically controlled (20° C.) and naturally illuminated stalls. They were scanned under terminal anaesthesia (ketamine induced isoflurane anaesthesia) on different days. The left femoral artery and vein of each animal were surgically cannulated using catheters (Avanti® size 4F-7F). Blood samples were collected from the femoral artery and the radiolabelled and non-labelled agents were injected to the femoral vein. Animals were placed supine in a Siemens ECAT EXACT HR tomograph, with the head immobilized in a custom-made holding device. During the study, blood pH, pCO2 and pO2 levels were monitored and maintained within the normal physiological range. In addition, BP and heart rate were recorded throughout the study. Compound A was administered intravenously in the femoral vein as a 1 minute bolus injection. PET scanning and arterial blood sampling was commenced upon start of the radioligand administration."}, "histamine H3 receptors": {"test_system": "histamine H3 receptors", "conditions": "prior art radioligands; cited from earlier work"}, "histamine H3 receptor [2]": {"test_system": "histamine H3 receptor", "experiment": "PET imaging with pharmacological challenges (blocking of Compound A uptake)", "format": "in vivo, pig", "method": "Four sequential high specific activity iv radioligand Compound A administrations were performed in same animal, same day. Following a baseline scan, Compound A was co-administered with escalating dose of unlabelled unlabelled compound A (0.005, 0.05 and 0.5 mg/kg). [^15O]CO and [^15O]H2O were administered pre and post administration of unlabelled compound A to monitor and to correct for changes in cerebral blood volume and changes in cerebral blood flow. […] A similar experiment was performed using escalating dose of ciproxifan (0.006, 0.06, 0.6 and 2.0 mg/kg), a known selective histamine H3 antagonist."}, "Human receptor H2": {"biological_target": "Human receptor H2 (Homo sapiens, UniProt P25021)", "sequence (P25021 whole entry)": "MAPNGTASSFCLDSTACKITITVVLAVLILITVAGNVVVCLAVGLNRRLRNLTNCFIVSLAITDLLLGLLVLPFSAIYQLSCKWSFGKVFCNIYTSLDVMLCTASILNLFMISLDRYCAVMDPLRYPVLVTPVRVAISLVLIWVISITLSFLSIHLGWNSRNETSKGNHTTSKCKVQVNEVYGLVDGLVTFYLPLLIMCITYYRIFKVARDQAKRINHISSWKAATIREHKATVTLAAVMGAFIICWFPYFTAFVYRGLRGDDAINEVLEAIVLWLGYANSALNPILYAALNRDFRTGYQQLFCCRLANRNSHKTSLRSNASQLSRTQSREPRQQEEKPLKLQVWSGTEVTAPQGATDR", "experiment": "Binding affinity, human H2 receptor", "conditions": "read-out: Binding affinity (pKi), human H2 (converted)"}, "Human receptor H4": {"biological_target": "Human receptor H4 (Homo sapiens, UniProt Q9H3N8)", "sequence (Q9H3N8 whole entry)": "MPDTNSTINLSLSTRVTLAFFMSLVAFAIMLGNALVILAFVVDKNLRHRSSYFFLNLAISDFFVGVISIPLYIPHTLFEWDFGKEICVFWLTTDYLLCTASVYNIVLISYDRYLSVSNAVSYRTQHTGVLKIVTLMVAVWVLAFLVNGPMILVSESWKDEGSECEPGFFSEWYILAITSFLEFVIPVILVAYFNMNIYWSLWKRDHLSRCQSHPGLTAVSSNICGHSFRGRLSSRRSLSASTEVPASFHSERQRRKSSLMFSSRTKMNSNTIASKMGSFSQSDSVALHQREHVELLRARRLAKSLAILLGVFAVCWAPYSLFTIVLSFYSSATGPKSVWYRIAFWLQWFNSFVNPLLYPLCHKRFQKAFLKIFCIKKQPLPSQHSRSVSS", "experiment": "Binding affinity, human H4 receptor", "conditions": "read-out: Binding affinity (pKi), human H4 (converted)"}, "Human receptor H1": {"biological_target": "Human receptor H1 (Homo sapiens, UniProt P35367)", "sequence (P35367 whole entry)": "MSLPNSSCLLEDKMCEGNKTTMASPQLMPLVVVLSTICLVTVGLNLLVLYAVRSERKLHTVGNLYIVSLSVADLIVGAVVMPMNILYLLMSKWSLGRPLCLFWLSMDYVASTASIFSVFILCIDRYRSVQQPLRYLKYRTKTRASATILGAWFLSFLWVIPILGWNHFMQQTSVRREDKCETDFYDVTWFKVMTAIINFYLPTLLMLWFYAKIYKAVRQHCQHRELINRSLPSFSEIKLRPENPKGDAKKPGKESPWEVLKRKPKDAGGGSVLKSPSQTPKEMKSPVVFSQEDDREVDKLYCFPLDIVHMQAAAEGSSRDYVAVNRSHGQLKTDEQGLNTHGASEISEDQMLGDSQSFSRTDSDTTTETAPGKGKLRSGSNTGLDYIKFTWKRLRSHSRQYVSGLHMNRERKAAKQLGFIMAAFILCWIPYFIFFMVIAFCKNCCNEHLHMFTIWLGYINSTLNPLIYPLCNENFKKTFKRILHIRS", "experiment": "Binding affinity, human H1 receptor", "conditions": "read-out: Binding affinity (pKi), human H1 (converted)"}, "[3]": {"biological_target": "T1, human histamine H3 receptor (Homo sapiens, UniProt Q9Y5N1)", "T1 construct": "expressed in transfected cells", "T1 sequence (Q9Y5N1 whole entry)": "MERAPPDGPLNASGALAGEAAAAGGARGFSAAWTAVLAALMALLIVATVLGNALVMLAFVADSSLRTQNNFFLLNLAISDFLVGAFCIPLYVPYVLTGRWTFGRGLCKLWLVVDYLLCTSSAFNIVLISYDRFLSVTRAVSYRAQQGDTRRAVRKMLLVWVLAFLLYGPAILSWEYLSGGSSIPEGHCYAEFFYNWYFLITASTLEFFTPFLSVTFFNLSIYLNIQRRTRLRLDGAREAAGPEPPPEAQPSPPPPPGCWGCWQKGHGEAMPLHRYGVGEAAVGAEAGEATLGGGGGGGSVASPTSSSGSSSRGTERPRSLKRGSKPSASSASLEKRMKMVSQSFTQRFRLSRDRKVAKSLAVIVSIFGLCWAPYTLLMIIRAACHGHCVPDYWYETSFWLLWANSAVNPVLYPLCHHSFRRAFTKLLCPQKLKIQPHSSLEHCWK", "experiment": "Competition binding assay using [125I]iodoproxifan, cell lines stably expressing human histamine H3 receptor", "method": "The in vitro affinity of unlabelled Compound A for the histamine H3 receptor was determined by competition assay using [^125I]iodoproxifan as radioligand binding to cell lines stably expressing human histamine H3 receptor.^13"}, "[4]": {"conditions": "2.0 mg/kg ciproxifan, 85 min post-injection"}}}
{"compound": "[11CH3]NC(=O)c1ccc(Oc2ccc3c(c2)CCN(C2CCC2)CC3)nc1", "note": "[Compound A, [^11C-N-methyl]-6-(3-cyclobutyl-2,3,4,5-tetrahydro-1H-benzo[d]azepin-7-yloxy)-nicotamide]", "values": [{"measurement": "Concentration in cerebellum", "setting": "histamine H3 receptor [1]", "value": "low"}, {"measurement": "Ratio relative to cerebellum, frontal cortex", "setting": "histamine H3 receptor [1]; 85 min, baseline", "value": 5.3}, {"measurement": "Ratio relative to cerebellum, occipital cortex", "setting": "histamine H3 receptor [1]; 85 min, baseline", "value": 3.8}, {"measurement": "Ratio relative to cerebellum, parietal cortex", "setting": "histamine H3 receptor [1]; 85 min, baseline", "value": 4.9}, {"measurement": "Ratio relative to cerebellum, striatum", "setting": "histamine H3 receptor [1]; 85 min, baseline", "value": 9.0}, {"measurement": "Ratio relative to cerebellum, thalamus", "setting": "histamine H3 receptor [1]; 85 min, baseline", "value": 3.4}, {"measurement": "Time of peak brain uptake of radioactivity", "setting": "histamine H3 receptor [1]; after administration of the radiotracer", "value": 25, "unit": "min"}, {"measurement": "Regional brain distribution", "setting": "histamine H3 receptor [1]; higher accumulation in striatum, cortices, thalamus, hypothalamus", "value": "reflected the known distribution of the histamine H3 receptor"}, {"measurement": "Brain entry", "setting": "histamine H3 receptor [1]; iv 1 minute bolus", "value": "readily enters the pig brain"}]}
{"compound": "[123I]c1ccc(COCCCc2cnc[nH]2)cc1", "note": "[[^123I]iodoproxifan]", "values": [{"measurement": "Alteration of brain distribution by selective H3 receptor ligand", "setting": "histamine H3 receptors", "value": "no significant alteration of the brain distribution by selective H3 receptor ligand"}]}
{"compound": "O=C(c1ccc(OCCCc2cnc[nH]2)cc1)C1CC1", "note": "[ciproxifan]", "values": [{"measurement": "Ratio tissue to cerebellum of Compound A, frontal cortex", "setting": "histamine H3 receptor [2]; [4]", "value": 1.08}, {"measurement": "Ratio tissue to cerebellum of Compound A, occipital cortex", "setting": "histamine H3 receptor [2]; [4]", "value": 0.99}, {"measurement": "Ratio tissue to cerebellum of Compound A, parietal cortex", "setting": "histamine H3 receptor [2]; [4]", "value": 0.91}, {"measurement": "Ratio tissue to cerebellum of Compound A, striatum", "setting": "histamine H3 receptor [2]; [4]", "value": 1.22}, {"measurement": "Ratio tissue to cerebellum of Compound A, thalamus", "setting": "histamine H3 receptor [2]; [4]", "value": 0.72}, {"measurement": "Effect on Compound A uptake in H3-rich brain regions", "setting": "histamine H3 receptor [2]; escalating dose 0.006, 0.06, 0.6 and 2.0 mg/kg", "value": "dose-dependent decrease"}]}
{"compound": "CNC(=O)c1ccc(Oc2ccc3c(c2)CCN(C2CCC2)CC3)nc1", "note": "[unlabelled Compound A]", "values": [{"measurement": "Ki", "setting": "Human receptor H2", "value": "> 3160", "unit": "nM"}, {"measurement": "Effect on specific uptake of radiotracer Compound A", "setting": "histamine H3 receptor [2]; co-administered at 0.005, 0.05 and 0.5 mg/kg", "value": "specific uptake of radiotracer was blocked"}, {"measurement": "Ki", "setting": "Human receptor H4", "value": "> 3160", "unit": "nM"}, {"measurement": "Ki", "setting": "Human receptor H1", "value": 2510, "unit": "nM"}, {"measurement": "Selectivity over other receptors", "setting": "[3]; H3 versus other receptors", "value": "high selective over other receptors"}, {"measurement": "Ki", "setting": "[3]; [125I]iodoproxifan as radioligand, read-out: Binding affinity (pKi), human H3 (converted)", "value": 0.257, "unit": "nM"}]}
